Reference: patent publication US20040106148A1, “Polypeptides” (priority 2000, published 2004)

Molecular target: mouse centaurin-β2 PH domain (residues 266 to 390), GST fusion (Mus musculus, UniProt Q6ZQK5)
Assay: Protein-lipid overlay
Assay type: binding
Details: FIG. 2
Description: FIG. 2. Phosphoinositide binding properties of the novel PH domains. The ability of the indicated GST fusion proteins to bind a variety of phosphoinositides was analysed using a protein-lipid overlay. Serial dilutions of the indicated phosphoinositides (100 pmol, 50 pmol, 25 pmol, 12.5 pmol, 6.3 pmol, 3.1 pmol and 1.6 pmol) were spotted onto a nitrocellulose membranes which were then incubated with the purified GST fusion proteins. The membranes were washed and the GST-fusion proteins bound to the membrane by virtue of their interaction with lipid were detected using a GST antibody. A representative of at least 3 separate experiments carried out is shown.
Cloning of PH domains and preparation of expression constructs. All the human and mouse EST's were obtained from the I.M.A.G.E. Consortium and sequenced. The plant EST (accession number T04439) encoding a full length clone of AtPH1 was obtained from the Arabidopsis Biological Research. Centre (Ohio University). The sequence of each EST was verified and the full length PH domain of each EST was amplified by PCR using the Hi-fidelity PCR system with primers designed to incorporate a Kozak site, an initiating ATG codon followed by a myc epitope tag and a stop codon after the PH domain. […]

mouse centaurin-β2 PH domain (residues 266 to 390), GST fusion, sequence (Q6ZQK5 266-390): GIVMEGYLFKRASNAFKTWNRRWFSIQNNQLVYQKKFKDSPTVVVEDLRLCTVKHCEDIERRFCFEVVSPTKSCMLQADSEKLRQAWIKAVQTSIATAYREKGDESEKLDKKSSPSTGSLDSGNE

phosphoinositide binding: moderate affinity
Compound: CCCCCCCCCCCCCCCC(=O)OC[C@H](COP(=O)(O)O[C@@H]1[C@H](O)[C@H](OP(=O)(O)O)[C@@H](O)[C@H](OP(=O)(O)O)[C@H]1O)OC(=O)CCCCCCCCCCCCCCC [PtdIns(3,5)P2]
